Source: US9724328B2, “Methods and compositions for treatment of lipid storage disorders” (NEUROTROPE BIOSCIENCE, priority 2014, dated 2017)

What was measured:
human NPC1 3123 cells = assay: Sphingolipid transport, BODIPY-LacCer staining; assay type: cell-based; details: 48 hours
From the text: For filipin staining in transfected cells, cells were transfected with PKC or Rab9 using Fugene 6 according to the manufacturer's recommendations. After 48 hrs, cells were stained with filipin as we have previously described. Cells were mounted onto slides using Fluoromount-G (SouthernBiotech, Birmingham, Ala.) and analyzed on a Nikon Eclipse microscope fitted with a charge-coupled-device camera (Nikon, Melville, N.Y.). Images were acquired with MetaVue software and then deconvoluted using AutoDeblur software from AutoQuant Imaging, Inc (Troy, N.Y.). For quantitation of filipin fluorescence, cells were seeded at 3×10^5 cells/well in 6-well dishes and allowed to settle overnight, after which the medium was replaced with medium containing 10% lipoprotein deficient serum (LPDS) for 4 days. Cells were incubated with oleic/linoleic acids for 48 hours, DCPLA/DHA for 24 hrs, or diazoxide for 72 hrs before fixing and staining with filipin as we have previously described. Images were acquired using the same exposure time for all samples. Fluorescence intensity was determined using the integrated intensity function of MetaVue software; at least 150 cells were quantitated for each sample and each experiment was repeated 3 times. For analysis of sphingolipid transport, cells were incubated with oleic/linoleic acids, DCP-LA, or PMA for 48 hours before BODIPY-LacCer staining was performed as previously described.

NPC cells = details: earlier study [5]; cited from earlier work
[1] = test system: human NPC1 fibroblasts (NPC1 3123); assay: Soluble vimentin levels by Western blot after fatty acid treatment; assay type: cell-based; details: for soluble vimentin in NPC1 cells: discussion statement, FIG. 5, concentration not given; for levels of soluble vimentin in cell lysates: human NPC1 fibroblasts, 50 μg/ml, 48 hours (FIG. 5 legend: 24 hrs)
Procedure: The human wild-type fibroblast (GM05387), NPClo fibroblast (GM09341), and NPC1 fibroblast (GM03123) cell lines were obtained from Coriell Cell Repositories (Camden, N.J.). The M12 Chinese hamster ovary (CHO) cell line and its wild-type parental line were obtained and cultured. Fibroblast cell lines were cultured in DMEM, and CHO cells were cultured in DMEM/F12 (50:50) medium, supplemented with 10% FBS, 2 mM L-glutamine, and 50 μg/ml gentamicin in a humidified incubator at 37° C. with 5% CO2.
Transfected cells were harvested with PBS containing 2 mM EDTA at 2 days post-transfection. Soluble and insoluble cell fractions were prepared as described previously. Briefly, to obtain the soluble/cytoplasmic fraction, cells were incubated on ice for 30 min in cold “phospho” buffer [150 mM NaCl, 20 mM NaF, 100 μM Na3VO4, 20 mM Hepes, pH 7.5), 1% (v/v) Igepal, 10% (v/v) glycerol, and 1 μL/20 mg tissue of protease inhibitor cocktail] and then centrifuged for 20 min at 14,000 rpm at 4° C.; the clear supernatant was frozen in aliquots at a concentration of 1 μg/μl. The pellet (insoluble fraction) was washed 3 times in ice-cold PBS containing 2 mM EDTA and then resuspended in a volume of “Triton” buffer [PBS, 1% (w/v) SDS, and 0.1% (v/v) Triton X-100] equal to the “phospho” buffer. This solution was boiled for 10 min and sonicated until the solution became clear. The protein concentration of this fraction was adjusted to 1 μg/μl according to the protein concentrations determined for the soluble/cytoplasmic fraction. Protein concentrations were determined using the fluorescamine method as we have described. 4-12% Bis-Tris precast gel (Invitrogen, Carlsbad, Calif.) and then transferred onto a Protran membrane using an XCell II apparatus (Invitrogen, Carlsbad, Calif.) according to the manufacturer's instructions. Blots were processed as described previously.

M12 NPC1 CHO cells = assay: Cholesterol esterification assay ([3H] oleate); assay type: cell-based, Chinese hamster; details: 50 μg/ml fatty acid for 2 days followed by expression of PKC ε
Procedure: The preparation of [^3H] oleate substrate and esterification assays were performed as previously described. Cells were treated with 50 μg/ml fatty acid for 2 days and then transfected with PKE α or PKC ε for 24 hrs before esterification assays. All values were generated in triplicate and normalized for total cell protein.

NPC3-SV cells = assay: Stored cholesterol by filipin staining in NPC3-SV cells; assay type: cell-based, Human; details: for clearance of cholesterol (stored cholesterol levels): 48 h, FIG. 8
Procedure: (§1) Cells are plated in 6-well dishes and treated with the appropriate compound (dissolved in DMSO) at the indicated dose daily for 48 hrs. Control cells receive DMSO. After 48 hrs cells are transferred to cover slips with fresh compound and grown for another 24 hrs. Cover slips are collected and processed for microscopy.
(§2) Filipin: For detection of unesterified cholesterol in lysosomes, cells were fixed in formalin for 30 min at 4° C., washed 2×, 5 min in 0.9% NaCl, incubated for 45 min with 0.01% filipin in PBS at room temperature, and then washed 2×, 5 min. Fluorescence was observed using a Nikon Eclipse fluorescence microscope (Nikon, Melville, N.Y.) equipped with a CCD camera. Fluorescence signals were quantified using Nikon's imaging and quantitation software package NIS Elements, v. 3.22.

NPC24-SV cells [2] = assay: Cholesterol accumulation by filipin staining in NPC24-SV cells; assay type: cell-based, Human
Procedure: as §1, §2

NPC3SV cells = assay type: cell-based, Human; details: FIG. 12, concentration not given
NPC24-SV cells [3] = assay: Glycosphingolipid accumulation by VTB staining in NPC24-SV cells; assay type: cell-based, Human; details: 0.1 nM
C57Bl6 NPC1 mice = assay: Survival of C57Bl6 NPC1 mice dosed IP twice weekly; assay type: in vivo, mouse
Procedure: A total of […] C57Bl6 NPC1 mice, mixed sex, were used. These mice were separated into 5 groups of 5 mice each, Groups 1-5.
Bryostatin 1 (purity≧95%) from Aphios (Woburn, Mass.), 1 vial 2 mg, was solubilized in a 5% DMSO, 20% Solutol and 75% Saline solution and used as the study drug. The negative (vehicle) control is a 5% DMSO, 20% Solutol and 75% Saline solution. DCP-LA from Sigma-Aldrich: 5 mg oil/vial was used as an additional in vitro active compound. Bryostatin 1 (API) was stored at or below −20° C. and formulated as needed. The formulated bryostatin 1 was stored at 2° to 8° C. for less than 24 hour(s). The DCP-LA and the vehicle controls were stored at 2°-8° C.
The stock solution of bryostatin 1 is 10 mg/ml in DMSO, which is kept at −80° C. in aliquots. The dosing formulation is made by diluting the stock first in DMSO, then adding solutol, and lastly saline—with more insoluble compounds, adding the drug stock to complete vehicle will cause the compound to come out of solution, so we make formulations stepwise. The dosing volume is always 100 μl. Mice weigh approximately 20 g.
The mice are dosed twice weekly (Mon and Thu) starting at 30 days for up to 150 days.
C57 NPC1 mice have an average life span of ˜110 days. By Day 70 mice reach an average weight of 18-22 grams. Untreated NPC1 mice develop ataxia and will begin to lose weight at ˜70 days (see FIG. 17). Ataxia (or lack of voluntary muscle control) is a clinical feature of NPC1 mice, which may be described as shaking. Treatment will be initiated at ˜30 days of age, average NPC mouse weight of 10 g. If the drug is efficacious injections will continue past day 70-80. An extension of life of about 20-30% will mean that animals will need to be treated up to day 130-150.

SMILES: CCCCCCCCCCCCCC(=O)O[C@@H]1[C@@H](C)[C@@]2(O)[C@@H](C=C(CO)C[C@]3(O)C(=O)C(C)=C[C@@H]23)[C@@H]2C(C)(C)[C@]12OC(C)=O [PMA, phorbol-12-myristate-13-acetate]
- BODIPY-LacCer transport to the trans-Golgi network (human NPC1 3123 cells; 100 nM): the lipid can be seen in the TGN
- NPC lipid storage phenotype (NPC cells): ameliorated the NPC lipid storage phenotype
- levels of soluble vimentin (NPC cells): increased levels of soluble vimentin

SMILES: CCCCC/C=C\C/C=C\CCCCCCCC(=O)O [linoleic acid]
- soluble vimentin in NPC1 cells [1]: increase of soluble vimentin
- levels of soluble vimentin in cell lysates [1]: significantly increases the amount of soluble vimentin
- cholesterol esterification levels over untreated cells (M12 NPC1 CHO cells): ~3.5 fold
- BODIPY-LacCer transport to the trans-Golgi network (human NPC1 3123 cells; 2 μg/ml): the lipid can be seen in the TGN

SMILES: CC1=NS(=O)(=O)c2cc(Cl)ccc2N1 [diazoxide]
- clearance of cholesterol (stored cholesterol levels) (NPC3-SV cells): able to induce clearance of cholesterol

SMILES: CCCCCC1CC1CC1CC1CCCCCCCC(=O)O (centres unmarked) [DCP-LA, 8-[2-(2-pentyl-cyclopropylmethyl)-cyclopropyl]-octanoic acid]
- soluble vimentin in NPC1 cells [1]: increase of soluble vimentin
- BODIPY-LacCer transport to the trans-Golgi network (human NPC1 3123 cells; 20 μM): the lipid can be seen in the TGN
- clearance of cholesterol (stored cholesterol levels) (NPC3-SV cells): able to induce clearance of cholesterol
- filipin accumulation (NPC24-SV cells [2]; NPC24-SV cells, FIG. 11, concentration not given): decrease filipin accumulation
- ganglioside transport block (NPC3SV cells): release the ganglioside transport block

SMILES: CCCCCCCC/C=C\CCCCCCCC(=O)O [oleic acid, cis-9-octadecenoic acid]
- soluble vimentin in NPC1 cells [1]: increase of soluble vimentin
- levels of soluble vimentin in cell lysates [1]: significantly increases the amount of soluble vimentin
- cholesterol esterification levels over untreated cells (M12 NPC1 CHO cells): ~3.5 fold
- BODIPY-LacCer transport to the trans-Golgi network (human NPC1 3123 cells; 2 μg/ml): the lipid can be seen in the TGN

SMILES: CCC/C=C/C=C/C(=O)O[C@H]1/C(=C/C(=O)OC)C[C@H]2C[C@H]([C@@H](C)O)OC(=O)C[C@H](O)C[C@@H]3C[C@H](OC(C)=O)C(C)(C)[C@](O)(C[C@@H]4C/C(=C/C(=O)OC)C[C@H](/C=C/C(C)(C)[C@]1(O)O2)O4)O3 [bryostatin 1]
- clearance of cholesterol (stored cholesterol levels) (NPC3-SV cells): able to induce clearance of cholesterol
- stored cholesterol levels (NPC3-SV cells; 72 h, FIG. 9): activity in the nanomolar concentration range
- effect in cholesterol assay (NPC24-SV cells [2]; 0.1 nM, NPC24-SV cells): no effect
- cholesterol clearance (NPC24-SV cells [2]; 10 nM, NPC24-SV cells, FIG. 11): able to effect cholesterol clearance
- concentration showing a positive therapeutic effect (NPC24-SV cells [2]; human NPC1 disease cells, summary of Example 2): 10 to 100 nM
- effect in sphingolipid assay (NPC24-SV cells [3]): no effect
- age that mice lived past (C57Bl6 NPC1 mice; 10 μg/kg IP twice weekly from 30 days of age): > 100 days
- age that mice lived past (C57Bl6 NPC1 mice; 20 μg/kg IP twice weekly from 30 days of age): > 100 days
- age that mice lived past (C57Bl6 NPC1 mice; 30 μg/kg IP twice weekly from 30 days of age): > 100 days
